Test results from the supplement of paper PMC10307832.

Legend:
Assay in all cases: relative viability (nuclei count vs DMSO), 5 days (fraction); higher = more cells survive
[1] = compound: O[C@@H](COc1cccc2ncccc12)CN1CCN([C@@H]2c3ccccc3[C@@H]3[C@H](c4ccccc42)C3(F)F)CC1 [Zosuquidar] + O=C(CCCCCCC(=O)Nc1ccccc1)NO [Vorinostat] (partner 1 µM)
Summary of the method: (§1)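 Relative viability is defined as nuclei in treated wells over nuclei in vehicle wells. Duplicate plates were run and medians reported. Lung cancer cell lines in 1536-well plates were dosed by pin tool one day after seeding, with one drug or with a fixed anchor-drug dose plus five library-drug doses (not always all listed) in √10 steps, and nuclei were counted after 5 days.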

[2] = compound: C1=CC(=CC=C1NC(=S)NNC2=C(C=C(C=C2[N+](=O)[O-])C(F)(F)F)[N+](=O)[O-])F [Kobe2602] + CCNC(=O)c1noc(-c2cc(C(C)C)c(O)cc2O)c1-c1ccc(CN2CCOCC2)cc1 [Luminespib] (partner 0.01 µM)
Summary of the method: as §1

[3] = compound: COc1cc2nccc(Oc3ccc(NC(=O)C4(C(=O)Nc5ccc(F)cc5)CC4)cc3)c2cc1OC [Cabozantinib] + O=C(CCCCCCC(=O)Nc1ccccc1)NO [Vorinostat] (partner 1 µM)
Summary of the method: as §1

[4] = compound: O[C@@H](COc1cccc2ncccc12)CN1CCN([C@@H]2c3ccccc3[C@@H]3[C@H](c4ccccc42)C3(F)F)CC1 [Zosuquidar] + CS(=O)(=O)N1CCN(Cc2cc3nc(-c4cccc5[nH]ncc45)nc(N4CCOCC4)c3s2)CC1 [Pictilisib] (partner 1 µM)
Summary of the method: as §1

| Cell Line | relative viability ([1]; first compound 0.01 µM) | relative viability ([1]; first compound 0.03162 µM) | relative viability ([1]; first compound 0.1 µM) | relative viability ([1]; first compound 0.3162 µM) | relative viability ([1]; first compound 1 µM) | relative viability ([2]; first compound 0.2 µM) | relative viability ([2]; first compound 0.6325 µM) | relative viability ([2]; first compound 2 µM) | relative viability ([2]; first compound 6.325 µM) | relative viability ([2]; first compound 20 µM) | relative viability ([3]; first compound 0.02 µM) | relative viability ([3]; first compound 0.06325 µM) | relative viability ([3]; first compound 0.2 µM) | relative viability ([3]; first compound 0.6325 µM) | relative viability ([3]; first compound 2 µM) | relative viability ([4]; first compound 0.01 µM) | relative viability ([4]; first compound 0.03162 µM) | relative viability ([4]; first compound 0.1 µM) | relative viability ([4]; first compound 0.3162 µM) | relative viability ([4]; first compound 1 µM) |
| --- | --- | --- | --- | --- | --- | --- | --- | --- | --- | --- | --- | --- | --- | --- | --- | --- | --- | --- | --- | --- |
| NCI-H1650 | 0.584 | 0.587 | 0.532 | 0.665 | 0.546 | 0.188 | 0.185 | 0.177 | 0.211 | 0.178 | 0.655 | 0.643 | 0.519 | 0.586 | 0.543 | 0.555 | 0.688 | 0.531 | 0.686 | 0.586 |
| NCI-H1651 | 0.576 | 0.604 | 0.471 | 0.607 | 0.501 | 0.673 | 0.911 | 0.642 | 0.758 | 0.93 | 0.511 | 0.709 | 0.533 | 0.571 | 0.622 | 0.589 | 0.661 | 0.559 | 0.668 | 0.615 |
| NCI-H1666 | 1 | 0.868 | 1.01 | 1.04 | 1.03 | 0.975 | 1.08 | 1 | 1.05 | 1.08 | 1.09 | 1.1 | 1.02 | 1.04 | 0.95 | 0.458 | 0.491 | 0.52 | 0.517 | 0.274 |
| NCI-H1734 | 0.764 | 0.832 | 0.883 | 0.839 | 0.887 | 0.196 | 0.175 | 0.167 | 0.187 | 0.173 | 0.703 | 1.01 | 0.847 | 0.886 | 0.792 | 0.388 | 0.484 | 0.399 | 0.471 | 0.478 |
| NCI-H1755 | 0.657 | 0.883 | 0.694 | 0.845 | 0.729 | 0.334 | 0.425 | 0.414 | 0.395 | 0.322 | 0.765 | 0.792 | 0.83 | 0.739 | 0.705 | 0.415 | 0.452 | 0.318 | 0.497 | 0.484 |
| NCI-H1793 | 0.745 |  |  | 1.06 | 0.629 | 0.185 | 0.201 | 0.217 | 0.47 | 0.205 | 0.652 | 1.12 |  | 0.744 | 0.759 | 0.483 | 0.383 |  | 0.357 | 0.297 |
| NCI-H1915 | 0.536 | 0.512 | 0.457 | 0.57 | 0.549 | 0.778 | 0.875 | 0.783 | 0.852 | 0.693 | 0.525 | 0.548 | 0.511 | 0.522 | 0.473 | 0.9 | 0.919 | 0.903 | 1.02 | 0.967 |
| NCI-H1944 | 0.524 | 0.528 | 0.543 | 0.672 | 0.535 | 0.74 | 0.801 | 0.608 | 0.739 | 0.645 | 0.615 | 0.617 | 0.527 | 0.582 | 0.637 | 0.342 | 0.337 | 0.312 | 0.363 | 0.349 |
| NCI-H1975 | 0.745 | 0.681 | 0.75 | 0.746 | 0.751 | 0.365 | 0.29 | 0.229 | 0.216 | 0.288 | 0.754 | 0.833 | 0.773 | 0.728 | 0.651 | 0.289 | 0.269 | 0.292 | 0.332 | 0.288 |
| NCI-H1993 | 0.958 | 0.603 |  | 0.835 | 0.885 | 0.673 | 0.794 | 0.605 | 0.658 | 0.769 | 0.553 | 0.723 | 0.63 | 0.64 | 0.831 | 0.766 | 0.913 | 0.804 | 0.875 | 0.644 |
| NCI-H2009 | 0.688 | 0.658 | 0.654 | 0.773 | 0.664 | 1.04 | 1.1 | 1.07 | 1.09 | 0.964 | 0.701 | 0.855 | 0.744 | 0.809 | 0.748 | 0.837 | 0.88 | 0.677 | 1.02 | 0.822 |
| NCI-H2023 | 0.529 | 0.837 | 0.596 | 0.732 | 0.541 | 0.596 | 0.783 | 0.759 | 0.528 | 0.156 | 0.608 | 0.623 | 0.599 | 0.648 | 0.594 | 0.235 | 0.235 | 0.171 | 0.324 | 0.271 |
| NCI-H2085 | 0.807 | 0.753 |  | 0.907 | 0.767 | 0.393 | 0.466 |  | 0.478 | 0.436 | 0.851 | 0.92 | 0.725 | 0.797 | 0.74 | 0.446 | 0.543 | 0.441 | 0.474 | 0.478 |
| NCI-H2087 | 0.666 | 0.707 | 0.739 | 0.667 | 0.77 | 0.226 | 0.153 | 0.174 | 0.143 | 0.153 | 0.752 | 0.781 | 0.563 | 0.49 | 0.715 | 0.894 | 0.844 | 0.791 | 1 | 0.853 |
| NCI-H2126 | 0.768 | 0.862 | 0.478 | 0.757 | 0.891 | 0.947 | 0.976 | 0.895 | 0.884 | 0.825 | 0.471 | 0.773 | 0.777 | 0.784 | 0.798 | 0.479 | 0.505 | 0.404 | 0.494 | 0.539 |
| NCI-H2170 | 0.828 | 0.784 | 0.763 | 0.844 | 0.826 | 0.856 | 0.922 | 0.703 | 0.944 | 0.719 | 0.818 | 0.821 | 0.704 | 0.847 | 0.914 | 0.295 | 0.266 | 0.312 | 0.345 | 0.281 |
| NCI-H2228 | 0.972 | 0.61 | 0.935 | 0.895 | 0.869 | 0.129 | 0.177 | 0.198 | 0.145 | 0.165 | 0.732 | 1.05 | 0.763 | 0.74 | 0.707 | 0.296 | 0.437 | 0.633 | 0.459 | 0.26 |
| NCI-H2347 | 0.531 | 0.713 | 0.499 | 0.615 | 0.56 | 0.454 | 0.369 | 0.793 |  | 0.756 | 0.525 | 0.525 | 0.627 | 0.469 | 0.391 | 0.627 | 0.495 | 0.467 | 0.735 | 0.647 |
| NCI-H2405 | 1.07 | 0.963 | 1.01 | 1.05 | 0.31 | 0.674 | 0.694 | 0.73 | 0.771 | 0.719 | 0.846 | 1.25 | 1.01 | 0.986 | 1.07 | 0.512 | 0.351 | 0.467 | 0.529 | 0.363 |
| NCI-H3122 | 0.984 | 1.03 | 0.894 | 1.07 | 1.07 | 0.074 | 0.0661 | 0.0867 | 0.102 | 0.0834 | 0.992 | 1 | 1.07 | 1.11 | 1.02 | 0.616 | 0.662 | 0.524 | 0.641 | 0.608 |
| PC-3 [JPC-3] | 0.817 | 0.91 | 0.589 | 0.916 | 0.416 | 0.746 | 0.799 | 0.713 | 0.748 | 0.649 | 0.694 | 1.1 |  | 0.816 | 1.02 | 0.768 | 0.539 | 0.664 | 0.677 | 0.738 |
| PC-14 | 0.826 | 0.673 | 0.721 | 0.831 | 0.761 | 0.16 | 0.161 | 0.307 | 0.151 | 0.149 | 0.691 | 0.956 |  | 0.692 | 0.748 | 0.573 | 0.831 | 0.801 | 0.696 | 0.816 |
| RERF-LC-KJ | 0.728 | 0.707 | 0.694 | 0.772 | 0.683 | 1.12 | 1.17 | 1.2 | 1.03 | 0.515 | 0.65 | 0.768 | 0.666 | 0.801 | 0.75 | 0.467 | 0.586 | 0.536 | 0.679 | 0.57 |
| SK-LU-1 | 0.828 | 0.829 | 0.839 | 0.926 | 0.761 | 0.204 | 0.222 | 0.189 | 0.188 | 0.205 | 0.719 | 1.04 | 0.755 | 0.797 | 0.72 | 0.552 | 0.642 | 0.567 | 0.689 | 0.543 |
| SK-MES-1 | 1.03 | 1.06 | 0.929 | 1.13 | 1.18 | 0.67 | 0.778 | 0.853 | 0.832 | 0.406 | 1.06 | 1.27 | 1.16 | 1.11 | 1.16 | 0.324 | 0.324 | 0.33 | 0.394 | 0.392 |
| SW 1573 | 0.584 | 0.831 | 1.23 | 0.851 | 0.928 | 0.202 | 0.212 | 0.21 | 0.458 | 0.0872 | 0.757 | 0.844 | 0.961 | 0.898 | 0.906 | 0.425 | 0.465 | 0.446 | 0.626 | 0.597 |
